# Measurements taken from patent US8822413B2, “Bifunctional hormone having alpha-MSH activity and natriuretic peptide activity and uses thereof” (Theratechnologies Inc., priority 2007, dated 2014).
# Bridge positions count the residues as written; N and C are the ends. Square brackets hold non-standard residues; d marks the D form. Peptide text beside a SMILES is read from it.
# Columns and labels:
# ANP receptor = target: T1, ANP receptor (Sus scrofa, UniProt F1SFW3); test: cGMP production in ANP receptor-expressing LLC-PK1 cells; format: cell-based; conditions: 30 min stimulation, 10^-6M through 10^-12M, NR = No response detected
# T1 construct: ANP receptor-expressing LLC-PK1 cells; endogenous in cells; host or cells: LLC-PK1 cells
# T1 sequence (F1SFW3 29-1057): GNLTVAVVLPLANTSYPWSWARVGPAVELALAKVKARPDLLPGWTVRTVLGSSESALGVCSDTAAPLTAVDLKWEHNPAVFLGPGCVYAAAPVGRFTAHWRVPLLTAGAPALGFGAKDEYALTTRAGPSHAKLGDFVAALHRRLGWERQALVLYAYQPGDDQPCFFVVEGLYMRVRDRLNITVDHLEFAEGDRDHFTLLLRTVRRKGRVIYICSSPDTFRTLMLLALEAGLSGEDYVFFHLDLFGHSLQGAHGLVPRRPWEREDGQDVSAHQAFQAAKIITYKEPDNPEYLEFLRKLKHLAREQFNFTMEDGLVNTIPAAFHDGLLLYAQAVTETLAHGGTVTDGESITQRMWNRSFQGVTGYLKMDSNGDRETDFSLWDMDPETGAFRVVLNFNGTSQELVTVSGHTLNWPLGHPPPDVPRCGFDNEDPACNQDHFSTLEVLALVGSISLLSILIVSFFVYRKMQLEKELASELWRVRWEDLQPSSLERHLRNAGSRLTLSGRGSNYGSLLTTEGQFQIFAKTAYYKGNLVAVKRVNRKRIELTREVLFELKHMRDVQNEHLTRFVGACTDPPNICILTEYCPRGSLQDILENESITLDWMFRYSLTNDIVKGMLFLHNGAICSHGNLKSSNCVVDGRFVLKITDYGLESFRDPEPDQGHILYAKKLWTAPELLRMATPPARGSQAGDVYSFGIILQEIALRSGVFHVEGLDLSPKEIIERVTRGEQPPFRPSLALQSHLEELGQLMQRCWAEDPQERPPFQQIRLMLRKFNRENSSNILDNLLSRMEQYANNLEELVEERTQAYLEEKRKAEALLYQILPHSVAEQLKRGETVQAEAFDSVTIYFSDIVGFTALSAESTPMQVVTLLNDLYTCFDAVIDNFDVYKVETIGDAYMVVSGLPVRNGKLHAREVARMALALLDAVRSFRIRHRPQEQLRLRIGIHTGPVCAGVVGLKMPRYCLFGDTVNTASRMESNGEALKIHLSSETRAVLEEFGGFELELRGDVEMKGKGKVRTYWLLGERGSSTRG
# Description: The bifunctional hormone was tested on ANP receptor-expressing LLC-PK1 cells and on MCR1 receptor-expressing B16-F1 cells. Both cell types were cultured 24 hours before the stimulation, in 96-well plates, at a concentration of 1.0×10^5 cells/ml. Before stimulation, cells were starved 2 hours in DPBS only and incubated 10 min in assay buffer (DPBS containing 20 mM HEPES, 0.1% BSA and 500 μM IBMX). The dose response curve of the bifunctional hormone was done for 30 minutes with concentrations of 10^−6M through 10^−12M. Supernatant was collected and cAMP (B16-F1) or cGMP (LLC-PK1) was measured with a radiolabeled kit from GE Healthcare Company.
# Sprague-Dawley (SD) rats [1] = test: Effect on mean arterial pressure (MAP) of anesthetized rat, iv bolus and iv infusion; format: in vivo
# Sprague-Dawley (SD) rats [2] = test: Effect on angiotensin II-induced hypertension in SD rat; format: in vivo; conditions: Ang II infusion, FIG. 2
# Text: BNP (Natrecor®) was approved by the FDA for lowering blood pressure in hypertensive crisis. Its natural homolog, ANP, was also shown to rapidly reduce blood pressure and is useful as a therapeutic in hypertensive crisis. Activation of renin-angiotensin system is implicated in several medical indications involving hypertension. Therefore, a rat model in which blood pressure was raised with the continuous infusion of angiotensin II was used, and the potency/efficacy of native ANP (peptide #2 in the figures) and the bifunctional hormone of SEQ ID NO: 33 (peptide #33 in the figures) to reduce blood pressure was tested following intravenous bolus injections of the peptides in SD rats.
# Animals. Sprague-Dawley (SD) rats (male, weighing from 300 to 330 g) were obtained from Charles River Inc. Animals were maintained on standard laboratory chow under a 12:12 light:dark cycle.
# Surgical preparation. The rats were anesthetized with isoflurane 2.5% for the duration of the experiment. Animals were placed under radiant warmer to keep the temperature at 37.5° C. The carotid artery was catheterized (Polyethylene™ Tubing PE90) for continuous arterial blood pressure recording with a pressure transducer (Statham) connected to a multichannel recorder (TA240 Gould). […] During this period, the stability of blood pressure was assessed. […]
smiles,measurement,setting,value
"CC[C@H](C)[C@@H]1NC(=O)[C@H](CCCNC(=N)N)NC(=O)[C@H](CC(=O)O)NC(=O)[C@H](CCSC)NC(=O)[C@H](CCCNC(=N)N)NC(=O)CNC(=O)CNC(=O)[C@H](Cc2ccccc2)NC(=O)[C@@H](NC(=O)[C@H](CCSC)NC(=O)[C@@H]2CCCN2C(=O)[C@H](CCCCN)NC(=O)CNC(=O)[C@H](Cc2c[nH]c3ccccc23)NC(=O)[C@H](CCCNC(=N)N)NC(=O)[C@@H](Cc2ccccc2)NC(=O)[C@H](Cc2c[nH]cn2)NC(C)=O)CSSC[C@@H](C(=O)N[C@@H](CC(N)=O)C(=O)N[C@@H](CO)C(=O)N[C@@H](Cc2ccccc2)C(=O)N[C@@H](CCCNC(=N)N)C(=O)N[C@@H](Cc2ccc(O)cc2)C(N)=O)NC(=O)CNC(=O)[C@H](CC(C)C)NC(=O)CNC(=O)[C@H](CO)NC(=O)[C@H](CCC(N)=O)NC(=O)[C@H](C)NC(=O)CNC1=O [SEQ ID NO: 33, Ac-H-f-R-W-G-K-P-M-[C-F-G-G-R-M-D-R-I-G-A-Q-S-G-L-G-C]-N-S-F-R-Y-NH2] (Ac-H[dF]RWGKPMCFGGRMDRIGAQSGLGCNSFRY-NH2; disulfide 9-25)",EC50,ANP receptor,69 nM
same,effect on MAP of continuous intravenous infusion,"Sprague-Dawley (SD) rats [1]; 30 μg/kg/h iv infusion, MAP recorded over an hour, FIG. 1B",well tolerated
same,bolus iv dose tolerated (MAP),"Sprague-Dawley (SD) rats [1]; anesthetized SD rat, incremental iv bolus doses, FIG. 1A",up to 20 μg/kg
same,effect on blood pressure raised by angiotensin II,Sprague-Dawley (SD) rats [2]; iv bolus doses of 400 μg/kg and above,effect similar to that of ANP
same,effect on blood pressure raised by angiotensin II,Sprague-Dawley (SD) rats [2]; iv bolus doses of up to 300 μg/kg,did not induced hypotension
